In publication PMC4926213, “Synthetic small molecule GLP-1 secretagogues prepared by means of a three-component indole annulation strategy” (Scientific Reports, 2016):

What was measured:
Format in all cases: cell-based
TRPA1 [1] = target: T1, TRPA1 (Mus musculus, UniProt Q8BLA8); assay: fura-2 Ca2+ assay and whole-cell patch clamp in STC-1 cells; blocked by A967079 and HC030031
T1 construct: endogenous channel in mouse STC-1 cells

TRPA1 [2] = target: T2, TRPA1 (Rattus norvegicus, UniProt Q6RI86, C622S); assay: fura-2 Ca2+ assay in HEK-293 cells transfected with C622S rat TRPA1
T2 construct: mutant rat C622S TRPA1
T2 sequence (Q6RI86 whole entry C622S): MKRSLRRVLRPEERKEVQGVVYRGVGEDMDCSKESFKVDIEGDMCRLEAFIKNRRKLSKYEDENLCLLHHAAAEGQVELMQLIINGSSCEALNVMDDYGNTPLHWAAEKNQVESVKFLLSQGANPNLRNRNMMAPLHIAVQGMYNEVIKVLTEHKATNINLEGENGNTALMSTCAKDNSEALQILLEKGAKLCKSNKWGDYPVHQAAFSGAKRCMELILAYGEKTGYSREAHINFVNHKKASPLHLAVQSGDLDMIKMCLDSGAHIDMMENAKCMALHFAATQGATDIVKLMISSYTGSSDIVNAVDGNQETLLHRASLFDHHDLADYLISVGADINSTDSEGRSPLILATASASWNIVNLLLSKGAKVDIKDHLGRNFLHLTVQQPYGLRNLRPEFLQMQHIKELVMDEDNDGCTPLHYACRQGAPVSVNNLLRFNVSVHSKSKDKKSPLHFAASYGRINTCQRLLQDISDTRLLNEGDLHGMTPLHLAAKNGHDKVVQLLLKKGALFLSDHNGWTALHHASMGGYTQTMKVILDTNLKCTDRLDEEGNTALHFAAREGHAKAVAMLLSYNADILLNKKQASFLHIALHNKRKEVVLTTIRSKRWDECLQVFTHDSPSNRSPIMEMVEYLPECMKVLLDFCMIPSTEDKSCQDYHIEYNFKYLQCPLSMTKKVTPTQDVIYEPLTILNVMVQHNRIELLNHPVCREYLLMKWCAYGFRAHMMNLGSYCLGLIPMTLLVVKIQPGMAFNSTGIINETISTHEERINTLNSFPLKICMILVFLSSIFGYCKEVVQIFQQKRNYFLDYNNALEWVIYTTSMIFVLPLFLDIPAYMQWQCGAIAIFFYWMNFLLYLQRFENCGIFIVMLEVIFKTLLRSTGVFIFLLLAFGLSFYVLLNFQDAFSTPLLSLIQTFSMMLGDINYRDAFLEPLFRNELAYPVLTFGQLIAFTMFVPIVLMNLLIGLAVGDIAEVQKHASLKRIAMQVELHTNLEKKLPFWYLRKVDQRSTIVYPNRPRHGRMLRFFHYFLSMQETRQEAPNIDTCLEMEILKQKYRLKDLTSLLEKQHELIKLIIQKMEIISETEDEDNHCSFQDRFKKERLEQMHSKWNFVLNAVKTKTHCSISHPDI

TRPA1 [3] = target: T3, TRPA1 (Rattus norvegicus, UniProt Q6RI86); assay: fura-2 Ca2+ assay in HEK-293 cells transfected with rat TRPA1 versus empty vector; loss of response in C622S
T3 construct: wild-type rat TRPA1 (GenBank AY496961.1), 5' fused to YFP
T3 sequence (Q6RI86 whole entry, the tested form may be a part): as the sequence (Q6RI86 whole entry C622S) above, with S622C counted along it

T1 sequence (Q8BLA8 whole entry): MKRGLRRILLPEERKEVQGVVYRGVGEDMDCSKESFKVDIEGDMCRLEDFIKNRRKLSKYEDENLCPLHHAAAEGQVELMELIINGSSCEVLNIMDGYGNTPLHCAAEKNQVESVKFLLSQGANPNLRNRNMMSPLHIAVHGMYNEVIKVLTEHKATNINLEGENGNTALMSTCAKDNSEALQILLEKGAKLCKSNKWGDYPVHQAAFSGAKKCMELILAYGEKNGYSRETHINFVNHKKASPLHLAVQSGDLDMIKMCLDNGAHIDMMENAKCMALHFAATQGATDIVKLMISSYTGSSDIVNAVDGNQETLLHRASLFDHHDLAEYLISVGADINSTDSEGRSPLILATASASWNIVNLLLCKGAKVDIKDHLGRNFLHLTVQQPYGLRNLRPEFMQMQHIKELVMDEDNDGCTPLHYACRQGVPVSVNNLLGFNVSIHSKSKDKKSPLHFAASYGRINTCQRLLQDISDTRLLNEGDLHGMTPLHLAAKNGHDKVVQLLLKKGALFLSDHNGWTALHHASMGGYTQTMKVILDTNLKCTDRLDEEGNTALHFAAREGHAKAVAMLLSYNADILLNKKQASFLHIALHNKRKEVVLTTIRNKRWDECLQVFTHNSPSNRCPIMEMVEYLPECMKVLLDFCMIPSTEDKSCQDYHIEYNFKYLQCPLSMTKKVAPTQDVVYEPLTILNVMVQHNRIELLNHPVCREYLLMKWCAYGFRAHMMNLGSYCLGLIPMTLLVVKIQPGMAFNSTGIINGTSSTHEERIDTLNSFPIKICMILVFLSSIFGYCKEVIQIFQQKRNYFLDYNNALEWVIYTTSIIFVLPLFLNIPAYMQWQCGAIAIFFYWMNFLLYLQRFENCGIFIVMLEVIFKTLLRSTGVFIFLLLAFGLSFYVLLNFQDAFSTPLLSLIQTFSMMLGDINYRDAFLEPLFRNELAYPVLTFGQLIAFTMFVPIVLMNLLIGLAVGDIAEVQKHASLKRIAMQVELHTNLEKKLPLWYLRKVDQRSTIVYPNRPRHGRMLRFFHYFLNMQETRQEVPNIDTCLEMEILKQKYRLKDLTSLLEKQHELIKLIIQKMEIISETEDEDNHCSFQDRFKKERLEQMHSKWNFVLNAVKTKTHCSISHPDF

Row | EC50 (TRPA1 [1]) | Compound | fura-2 Ca2+ assay in HEK-293 cells transfected with C622S rat TRPA1 (TRPA1 [2]) | fura-2 Ca2+ assay in HEK-293 cells transfected with rat TRPA1 versus empty vecto (TRPA1 [3])
1 | ~200 nM | CC1(C)c2c([nH]c3ccc(Cl)cc23)C2C=CC1C2 (racemic) [JWU-A021] | mutant C622S rat TRPA1 cDNA responded to JWU-A021 in a manner nearly identical to that of cells transfected with WT | 
2 |  | C=CCN=C=S [AITC, allyl isothiocyanate] |  | the electrophile AITC must covalently modify C622 in order to fully activate the channel
